Measurements taken from ChEMBL document CHEMBL1159211, “Antifungal evaluation of pseudolaric acid B, a major constituent of Pseudolarix kaempferi” (J Nat Prod, 1995).
The source made the active and inactive calls. The calls are words filed in the database; no cut-off is given here.

What was measured:
[1] = tested on: Candida albicans; test: Antimicrobial activity against Candida albicans at 1 mg/mL by agar-well diffusion assay; assay type: functional; settings: for zone of inhibition at 1000 µg/mL: Candida albicans, read-out: IZ
[2] = tested on: Aspergillus flavus; test: Antimicrobial activity against Aspergillus flavus at 1 mg/mL by agar-well diffusion assay; assay type: functional
[3] = tested on: Aspergillus fumigatus; test: Antimicrobial activity against Aspergillus fumigatus at 1 mg/mL by agar-well diffusion assay; assay type: functional
[4] = tested on: Cryptococcus neoformans; test: Antimicrobial activity against Cryptococcus neoformans at 1 mg/mL by agar-well diffusion assay; assay type: functional
[5] = tested on: Trichophyton mentagrophytes; test: Antimicrobial activity against Trichophyton mentagrophytes at 1 mg/mL by agar-well diffusion assay; assay type: functional
[6] = tested on: Nannizzia gypsea; test: Antimicrobial activity against Microsporum gypseum at 1 mg/mL by agar-well diffusion assay; assay type: functional
[7] = tested on: Saccharomyces cerevisiae; test: Antimicrobial activity against Saccharomyces cerevisiae at 1 mg/mL by agar-well diffusion assay; assay type: functional, organism-based
[8] = tested on: Escherichia coli; test: Antimicrobial activity against Escherichia coli at 1 mg/mL by agar-well diffusion assay; assay type: functional, organism-based
[9] = tested on: Staphylococcus aureus; test: Antimicrobial activity against Staphylococcus aureus at 1 mg/mL by agar-well diffusion assay; assay type: functional, organism-based
[10] = tested on: Bacillus subtilis; test: Antimicrobial activity against Bacillus subtilis at 1 mg/mL by agar-well diffusion assay; assay type: functional, organism-based
[11] = tested on: Pseudomonas aeruginosa; test: Antimicrobial activity against Pseudomonas aeruginosa at 1 mg/mL by agar-well diffusion assay; assay type: functional, organism-based
[12] = tested on: Mycobacterium intracellulare; test: Antimicrobial activity against Mycobacterium intracellular at 1 mg/mL by agar-well diffusion assay; assay type: functional

Structure (SMILES): CC(=O)O[C@]12CCC(C(=O)O)=CC[C@]13CC[C@H]2[C@@](C)(/C=C/C=C(\C)C(=O)O)OC3=O [PSEUDOLARIC ACID C2]
- zone of inhibition at 1000 µg/mL [1]: < 1 mm
- Activity [2]: inactive
- Activity [3]: inactive
- Activity [4]: inactive
- Activity [5]: inactive
- Activity [6]: inactive
- Activity [7]: inactive
- Activity [8]: inactive
- Activity [9]: inactive
- Activity [10]: inactive
- Activity [11]: inactive
- Activity [12]: inactive

Structure (SMILES): COC(=O)C1=CC[C@@]23CC[C@@H]([C@@](C)(/C=C/C=C(\C)C(=O)O)OC2=O)[C@@]3(O)CC1 [PSEUDOLARIC ACID C]
- zone of inhibition at 1000 µg/mL [1]: 1 mm
- zone of inhibition at 1000 µg/mL ([2]; read-out: IZ): 1 mm
- zone of inhibition at 1000 µg/mL ([3]; Aspergillus fumigatus, read-out: IZ): 1 mm
- zone of inhibition at 1000 µg/mL ([4]; read-out: IZ): 1 mm
- Activity [5]: inactive
- Activity [6]: inactive
- Activity [7]: inactive
- Activity [8]: inactive
- Activity [9]: inactive
- Activity [10]: inactive
- Activity [11]: inactive
- zone of inhibition at 1000 µg/mL ([12]; read-out: IZ): 1 mm

Structure (SMILES): COC(=O)C1=CC[C@@]23CC[C@@H]([C@@](C)(/C=C/C=C(\C)C(=O)[O-])OC2=O)[C@@]3(OC(C)=O)CC1.[Na+] [SODIUM PSEUDOLARATE B]
- inhibition zone (IZ) [1]: 7 mm
- inhibition zone (IZ) [3]: 3 mm
- inhibition zone (IZ) [5]: 7 mm
- inhibition zone (IZ) [6]: 7 mm
